The nature of series [1]: Solubility in 0.1M phosphate buffer, pH 7.4. The class given is physicochemical. The note with it: aqueous buffer, thermodynamic from solid, pH 7.4, 20° C. As for the experimental part:
Protocol for Determination of Solubility
The test compound (1 mg) was weighed into a 2 mL glass vial with a screw cap and 0.1M phosphate buffer pH 7.4. (1.00 mL) was added. The sample vial was then sonicated for about 10 minutes and then placed on a shake board overnight at 20° C. The contents of the sample vial were then filtered through a Millipore Millex-LH 0.45 μm filter into a new 2 mL glass vial to give a clear solution. The clear solution (40 μL) was transferred to a new 2 mL glass vial and diluted with 0.1M phosphate buffer, pH 7.4 (960 μL).
A standard calibration curve for each particular test compound was established using solutions of known concentration. These solutions of known concentration were normally chosen to have concentrations of ˜10 μg/mL and ˜50 μg/mL. They were prepared by dissolving a known weight of the compound in 99.5% ethanol (500 μL) and then sonicating for one minute if necessary. If the compound was still not completely dissolved, DMSO (500 μL) was added and the mixture sonicated for an additional one minute. The resulting solution was then diluted to the appropriate volume with a mixture of acetonitrile/100 mM ammonium acetate pH 5.5 20-50/80-50. If necessary, a further, more dilute, standard solution was prepared by dilution.

Series [2] has as its target T1, Recombinant human MMP12 catalytic domain (Homo sapiens, UniProt P39900).
T1 construct: Recombinant human MMP12 catalytic domain; made in house
Nature of the series: MMP12 isolated enzyme assay. The conditions noted are these: read-out: hMMP12 IC50. The format is biochemical. As for the experimental part: Recombinant human MMP12 catalytic domain may be expressed and purified as described by Parkar A. A. et al, (2000), Protein Expression and Purification, 20, 152. The purified enzyme can be used to monitor inhibitors of activity as follows: MMP12 (50 ng/ml final concentration) is incubated for 60 minutes at room temperature with the synthetic substrate Mca-Pro-Cha-Gly-Nva-His-Ala-Dpa-NH2 (10 μM) in assay buffer (0.1M “Tris-HCl”™ buffer, pH 7.3 containing 0.1M NaCl, 20 mM CaCl2, 0.020 mM ZnCl and 0.05% (w/v) “Brij 35”™ detergent) in the presence (10 concentrations) or absence of inhibitors. Activity is determined by measuring the fluorescence at λex 320 nm and λem 405 nm. Percent inhibition is calculated as follows: % Inhibition is equal to the [Fluorescenceplus inhibitor−Fluorescencebackground] divided by the [Fluorescenceminus inhibitor−Fluorescencebackground]. MMP8

Series [3] deals with T2, Recombinant human MMP14 catalytic domain (Homo sapiens, UniProt P50281).
T2 construct: Recombinant human MMP14 catalytic domain; made in house
Nature of the series: MMP14 isolated enzyme assay. The class given is biochemical. The conditions noted are these: read-out: hMMP14 IC50. As for the experimental part:
Recombinant human MMP14 catalytic domain may be expressed and purified as described by Parkar A. A. et al, (2000), Protein Expression and Purification, 20, 152. The purified enzyme can be used to monitor inhibitors of activity as follows: MMP14 (10 ng/ml final concentration) is incubated for 60 minutes at room temperature with the synthetic substrate Mca-Pro-Cha-Gly-Nva-His-Ala-Dpa-NH2 (10 μM) in assay buffer (0.1M “Tris-HCl” (trade mark) buffer, pH 7.5 containing 0.1M NaCl, 20 mM CaCl2, 0.020 mM ZnCl and 0.05% (w/v) “Brij 35”™ detergent) in the presence (5 concentrations) or absence of inhibitors. Activity is determined by measuring the fluorescence at λex 320 nm and λem 405 nm. Percent inhibition is calculated as follows: % Inhibition is equal to the [Fluorescenceplus inhibitor−Fluorescencebackground] divided by the [Fluorescenceminus inhibitor−Fluorescencebackground].

Another series concerns the target T3, MMP8 (Homo sapiens, UniProt P22894).
T3 construct: purchased Calbiochem
Nature of the series: MMP8 isolated enzyme assay. The class given is biochemical. The note with it: read-out: hMMP8 IC50. The method, then:
Purified pro-MMP8 is purchased from Calbiochem. The enzyme (at 10 μg/ml) is activated by p-amino-phenyl-mercuric acetate (APMA) at 1 mM for 2.5 h, 35° C. The activated enzyme can be used to monitor inhibitors of activity as follows: MMP8 (200 ng/ml final concentration) is incubated for 90 minutes at 35° C. (80% H2O) with the synthetic substrate Mca-Pro-Cha-Gly-Nva-His-Ala-Dpa-NH2 (12.5 μM) in assay buffer (0.1M “Tris-HCl”™ buffer, pH 7.5 containing 0.1M NaCl, 30 mM CaCl2, 0.040 mM ZnCl and 0.05% (w/v) “Brij 35”™ detergent) in the presence (10 concentrations) or absence of inhibitors. Activity is determined by measuring the fluorescence at λex 320 nm and λem 405 nm. Percent inhibition is calculated as follows: % Inhibition is equal to the [Fluorescenceplus inhibitor−Fluorescencebackground] divided by the [Fluorescenceminus inhibitor−Fluorescencebackground]. MMP9

Series [4] addresses T4, Recombinant human MMP9 catalytic domain (Homo sapiens, UniProt P14780).
T4 sequence (P14780 with tags, fused parts or gaps DEL216-390 limits assumed): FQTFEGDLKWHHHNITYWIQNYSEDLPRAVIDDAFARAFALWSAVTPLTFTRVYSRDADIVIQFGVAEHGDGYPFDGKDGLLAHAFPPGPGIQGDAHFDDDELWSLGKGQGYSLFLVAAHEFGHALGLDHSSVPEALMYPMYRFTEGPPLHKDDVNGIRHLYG
In words: MMP9 isolated enzyme assay. The conditions noted are these: read-out: hMMP9 IC50. The class given is biochemical. The method, then: Recombinant human MMP9 catalytic domain was expressed and then purified by Zn chelate column chromatography followed by hydroxamate affinity column chromatography. The enzyme can be used to monitor inhibitors of activity as follows: MMP9 (5 ng/ml final concentration) is incubated for 30 minutes at RT with the synthetic substrate Mca-Pro-Cha-Gly-Nva-His-Ala-Dpa-NH2 (5 μM) in assay buffer (0.1M “Tris-HCl”™ buffer, pH 7.3 containing 0.1M NaCl, 20 mM CaCl2, 0.020 mM ZnCl and 0.05% (w/v) “Brij 35”™ detergent) in the presence (10 concentrations) or absence of inhibitors. Activity is determined by measuring the fluorescence at λex 320 nm and λem 405 nm. Percent inhibition is calculated as follows: % Inhibition is equal to the [Fluorescenceplus inhibitor−Fluorescencebackground] divided by the [Fluorescenceminus inhibitor−Fluorescencebackground]. MMP14
A protocol for testing against other matrix metalloproteinases, including MMP9, using expressed and purified pro MMP is described, for instance, by C. Graham Knight et al., (1992) FEBS Lett., 296(3), 263-266.

The next series deals with plasma protein. In words: Plasma protein binding by ultrafiltration. The class given is in vitro ADME. The note with it: 10 μM. The method, then:
Plasma protein binding was determined by ultrafiltration in an automated 96 well format assay. On each test occasion the plasma protein binding of a reference compound (budesonide) was monitored in parallel.
Test compounds (10 mM dissolved in DMSO) were added to plasma to a final concentration of 10 μM and equilibrated at room temperature for 10 minutes. 350 μL of the plasma was transferred to an ultrafiltration plate, Microcon-96 (10 kDa cutoff, Millipore). The ultrafiltration plate was centrifuged at 3000 G for 70 minutes at room temperature. After centrifugation, the concentration of the compounds in the obtained plasma water (the unbound fraction) was determined by LC-MS/MS using a 3-point calibration curve and compared to the concentration in the original spiked plasma.
The analyses were performed using a gradient chromatographic system with acetic acid/acetonitrile as mobile phases. The detection was done using a triple quadropole mass spectrometer, API3000 or API4000, from Applied Biosystems, with an electrospray interface.

Here are results for three compounds from patent US20080004317A1, “Compounds” (AstraZeneca AB, priority 2004, published 2008).

Values after ≈ are worked out from the molar mass of the structure shown. Where only a bound is given, the exact number is not on record here.

T3 sequence (P22894 101-467): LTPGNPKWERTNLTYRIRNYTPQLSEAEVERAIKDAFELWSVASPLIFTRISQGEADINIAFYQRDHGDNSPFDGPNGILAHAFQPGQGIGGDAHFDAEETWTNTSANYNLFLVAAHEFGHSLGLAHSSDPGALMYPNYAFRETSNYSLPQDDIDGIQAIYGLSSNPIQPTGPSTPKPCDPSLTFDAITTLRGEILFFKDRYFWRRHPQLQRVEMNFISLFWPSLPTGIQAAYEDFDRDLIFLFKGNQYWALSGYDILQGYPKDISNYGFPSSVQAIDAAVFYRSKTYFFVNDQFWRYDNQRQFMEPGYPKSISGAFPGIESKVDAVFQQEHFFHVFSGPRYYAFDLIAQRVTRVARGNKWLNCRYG
T1 sequence (P39900 106-263 limits assumed): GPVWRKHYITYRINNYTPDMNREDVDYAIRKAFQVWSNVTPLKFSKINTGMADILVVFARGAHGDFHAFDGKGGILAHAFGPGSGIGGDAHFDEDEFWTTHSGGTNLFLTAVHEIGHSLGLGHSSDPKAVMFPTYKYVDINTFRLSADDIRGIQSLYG

`C[C@]1(CS(=O)(=O)N2CC=C(C#Cc3ccc(C(F)(F)F)nc3)CC2)NC(=O)NC1=O` [Example 5, (5S)-5-Methyl-5-({[4-{[6-(trifluoromethyl)pyridin-3-yl]ethynyl}-3,6-dihydropyridin-1(2H)-yl]sulfonyl}methyl)imidazolidine-2,4-dione] returned a solubility in series [1] of 41 µM (≈ 18.1 µg/mL). For the same compound, the 50% inhibitory concentration (IC50) is 5 nM in series [2], more than 10000 nM in series [3], 430 nM at MMP8 and 7 nM in series [4].
In the case of `C[C@]1(CS(=O)(=O)N2CC=C(C#Cc3ccccn3)CC2)NC(=O)NC1=O` [WO 02/074767, page 119, (5S)-5-methyl-5-({[4-(pyridin-2-ylethynyl)-3,6-dihydropyridin-1(2H)-yl]sulfonyl}-methyl)-imidazolidine-2,4-dione, reference compound], the concentration in solution in series [1] (solubility) was 1600 µM (≈ 598 µg/mL). The IC50 was 140 nM in series [2], more than 1000 nM in series [3], more than 1000 nM on MMP8 and 11200 nM in series [4].
`CCc1ccc(C#CC2=CCN(S(=O)(=O)C[C@@]3(C)NC(=O)NC3=O)CC2)cn1` [Example 4, (5S)-5-({[4-[(6-Ethylpyridin-3-yl)ethynyl]-3,6-dihydropyridin-1-(2H)-yl]sulfonyl}methyl)-5-methylimidazolidine-2,4-dione] had a solubility in series [1] of 1300 µM (≈ 522 µg/mL). Also, the concentration for half-maximal inhibition (IC50) is 3 nM in series [2], more than 10000 nM in series [3], 780 nM on MMP8 and 8 nM in series [4]. Moreover, in the series with plasma protein, the “Protein binding (% free)” value turned out to be 9.7 % free.

As a reminder, the solubility is the dissolved amount per volume that the medium holds. Low readings indicate a poorly soluble substance, high ones a readily soluble substance. By IC50 is commonly meant the concentration that gives 50% inhibition.
